Data reported in PMC5108240 (ACS infectious diseases, 2016).
Converted amounts (≈) assume the structure as drawn.

Columns and labels:
[1] = tested on: K. pneumoniae (ATCC 10031); format: cell-based, Klebsiella pneumoniae
[2] = molecular target: K. pneumoniae DHFR (Klebsiella pneumoniae, UniProt A6T4I4); experiment: biochemical
[3] = tested on: E. coli (ATCC 25922); format: cell-based
[4] = tested on: K. pneumoniae (ATCC 10031); experiment: microbe, parasite or virus in culture; format: cell-based; settings: Klebsiella pneumoniae, ATCC10031, read-out: MIC in the presence of thymidine

For `COc1cc(Cc2cnc(N)nc2N)cc(OC)c1OC` [TMP, trimethoprim], the “MIC Kp” value [1] was 0.0781 µg/mL (≈ 0.269 µM), the IC50 [2] was 106 ± 6 nM and the “Time-kill: bacteriostatic or bactericidal” value [3] was “bacteriostatic”. It also gave an MIC [4] greater than 20 µg/mL.
